# Data published in ChEMBL document CHEMBL3407472, “Multi-parameter optimization of aza-follow-ups to BI 207524, a thumb pocket 1 HCV NS5B polymerase inhibitor. Part 2: Impact of lipophilicity on promiscuity and in vivo toxicity” (Bioorg Med Chem Lett, 2015).
# Test system: Hepatitis C virus
# Test: Antiviral activity against Hepatitis C virus genotype 1b infected in human Huh cells assessed as inhibition of viral replication by RT-PCR-based replicon assay
# Type: functional, cell-based, Hepacivirus hominis
# Conditions: not given
row,EC50 [µM],SMILES
1,0.013,CCOc1nc(NC(=O)C2(NC(=O)c3ccc4c(C5CCCC5)c(-c5ccc(Cl)cn5)n(C)c4c3)CCC2)ccc1/C=C/C(=O)O
2,0.008,CCOc1nc(NC(=O)C2(NC(=O)c3ccc4c(C5CCCC5)c(-c5cnccn5)n(C)c4c3)CCC2)ccc1/C=C/C(=O)O
3,0.015,CCOc1nc(NC(=O)C2(NC(=O)c3ccc4c(C5CCCC5)c(-c5cncnc5)n(C)c4c3)CCC2)ccc1/C=C/C(=O)O
4,0.013,CCOc1nc(NC(=O)C2(NC(=O)c3ccc4c(C5CCCC5)c(-c5ccccn5)n(C)c4c3)CCC2)cnc1/C=C/C(=O)O
5,0.006,CCOc1nc(NC(=O)C(C)(C)NC(=O)c2ccc3c(C4CCCC4)c(-c4ncc(Cl)cn4)n(C)c3c2)ccc1/C=C/C(=O)O
6,0.012,CCOc1nc(NC(=O)C(C)(C)NC(=O)c2ccc3c(C4CCCC4)c(-c4cncnc4)n(C)c3c2)ccc1/C=C/C(=O)O

# Test system: not listed separately
# Test: Plasma concentration in rat at 2 mg/kg, po each in 0.5% Methylcellulose and 0.3% Tween-80 and 1% N-methylpyrrolidone after 1 hr
# Type: ADME, organism-based
# Set-up: dose 2 mg/kg, route oral
# Conditions: not given
row,concentration at 1 h [nM],SMILES
1,500,CCOc1nc(NC(=O)C2(NC(=O)c3ccc4c(C5CCCC5)c(-c5ccccn5)n(C)c4c3)CCC2)cnc1/C=C/C(=O)O
2,200,CCOc1nc(NC(=O)C(C)(C)NC(=O)c2ccc3c(C4CCCC4)c(-c4cncnc4)n(C)c3c2)ccc1/C=C/C(=O)O

# Test system: not listed separately
# Test: Lipophilicity, log D of the compound at pH 7.4
# Type: physicochemical
# Conditions: buffer
row,logD,SMILES
1,3.6,CCOc1nc(NC(=O)C2(NC(=O)c3ccc4c(C5CCCC5)c(-c5cnccn5)n(C)c4c3)CCC2)ccc1/C=C/C(=O)O
2,3.4,CCOc1nc(NC(=O)C2(NC(=O)c3ccc4c(C5CCCC5)c(-c5cncnc5)n(C)c4c3)CCC2)ccc1/C=C/C(=O)O
3,3.1,CCOc1nc(NC(=O)C2(NC(=O)c3ccc4c(C5CCCC5)c(-c5ccccn5)n(C)c4c3)CCC2)cnc1/C=C/C(=O)O
4,4,CCOc1nc(NC(=O)C(C)(C)NC(=O)c2ccc3c(C4CCCC4)c(-c4ncc(Cl)cn4)n(C)c3c2)ccc1/C=C/C(=O)O
5,3,CCOc1nc(NC(=O)C(C)(C)NC(=O)c2ccc3c(C4CCCC4)c(-c4cncnc4)n(C)c3c2)ccc1/C=C/C(=O)O

# Test system: not listed separately
# Test: Half life in human liver microsomes at 2 uM
# Type: ADME
# Conditions: not given
row,half-life at 2 µM [h],SMILES
1,2.78,CCOc1nc(NC(=O)C2(NC(=O)c3ccc4c(C5CCCC5)c(-c5ccc(Cl)cn5)n(C)c4c3)CCC2)ccc1/C=C/C(=O)O
2,0.55,CCOc1nc(NC(=O)C2(NC(=O)c3ccc4c(C5CCCC5)c(-c5cnccn5)n(C)c4c3)CCC2)ccc1/C=C/C(=O)O
3,1.02,CCOc1nc(NC(=O)C2(NC(=O)c3ccc4c(C5CCCC5)c(-c5cncnc5)n(C)c4c3)CCC2)ccc1/C=C/C(=O)O
4,1.78,CCOc1nc(NC(=O)C2(NC(=O)c3ccc4c(C5CCCC5)c(-c5ccccn5)n(C)c4c3)CCC2)cnc1/C=C/C(=O)O
5,1.15,CCOc1nc(NC(=O)C(C)(C)NC(=O)c2ccc3c(C4CCCC4)c(-c4cncnc4)n(C)c3c2)ccc1/C=C/C(=O)O

# Test system: not listed separately
# Test: Plasma concentration in rat at 2 mg/kg, po each in 0.5% Methylcellulose and 0.3% Tween-80 and 1% N-methylpyrrolidone after 2 hrs
# Type: ADME, organism-based
# Set-up: dose 2 mg/kg, route oral
# Conditions: not given
row,concentration at 2 h [nM],SMILES
1,200,CCOc1nc(NC(=O)C2(NC(=O)c3ccc4c(C5CCCC5)c(-c5ccccn5)n(C)c4c3)CCC2)cnc1/C=C/C(=O)O
2,100,CCOc1nc(NC(=O)C(C)(C)NC(=O)c2ccc3c(C4CCCC4)c(-c4cncnc4)n(C)c3c2)ccc1/C=C/C(=O)O

# Test system: not listed separately
# Test: Lipophilicity, log D of the compound
# Type: physicochemical
# Conditions: octanol/water
row,logD,SMILES
1,3.1,CCOc1nc(NC(=O)C2(NC(=O)c3ccc4c(C5CCCC5)c(-c5ccccn5)n(C)c4c3)CCC2)cnc1/C=C/C(=O)O
2,3,CCOc1nc(NC(=O)C(C)(C)NC(=O)c2ccc3c(C4CCCC4)c(-c4cncnc4)n(C)c3c2)ccc1/C=C/C(=O)O

# Test system: Hepatitis C virus
# Test: Antiviral activity against Hepatitis C virus genotype 1a infected in human Huh cells assessed as inhibition of viral replication by RT-PCR-based replicon assay
# Type: functional, cell-based, Hepacivirus hominis
# Conditions: subtype 1a
row,EC50 [µM],SMILES
1,0.04,CCOc1nc(NC(=O)C2(NC(=O)c3ccc4c(C5CCCC5)c(-c5ccc(Cl)cn5)n(C)c4c3)CCC2)ccc1/C=C/C(=O)O
2,0.007,CCOc1nc(NC(=O)C(C)(C)NC(=O)c2ccc3c(C4CCCC4)c(-c4ncc(Cl)cn4)n(C)c3c2)ccc1/C=C/C(=O)O

# Test system: not listed separately
# Test: Half life in rat liver microsomes at 2 uM
# Type: ADME
# Conditions: not given
row,half-life at 2 µM [h],SMILES
1,0.617,CCOc1nc(NC(=O)C2(NC(=O)c3ccc4c(C5CCCC5)c(-c5ccccn5)n(C)c4c3)CCC2)cnc1/C=C/C(=O)O
2,1.27,CCOc1nc(NC(=O)C(C)(C)NC(=O)c2ccc3c(C4CCCC4)c(-c4cncnc4)n(C)c3c2)ccc1/C=C/C(=O)O

# Test system: not listed separately
# Test: Permeability from apical to basolateral side of human Caco2 cells
# Type: ADME, cell-based
# Conditions: Caco-2, read-out: permeability
row,Papp A→B [×10⁻⁶ cm/s],SMILES
1,15,CCOc1nc(NC(=O)C2(NC(=O)c3ccc4c(C5CCCC5)c(-c5ccc(Cl)cn5)n(C)c4c3)CCC2)ccc1/C=C/C(=O)O
2,13,CCOc1nc(NC(=O)C2(NC(=O)c3ccc4c(C5CCCC5)c(-c5cnccn5)n(C)c4c3)CCC2)ccc1/C=C/C(=O)O
3,17,CCOc1nc(NC(=O)C2(NC(=O)c3ccc4c(C5CCCC5)c(-c5cncnc5)n(C)c4c3)CCC2)ccc1/C=C/C(=O)O
